Data as given in patent US9855320B2, “Angiogenin for treatment of glaucoma” (CHUNG-ANG UNIVERSITY INDUSTRY-ACADEMIC COOPERATION …, priority 2011, dated 2018).

Key:
CD11b marked macrophage = assay: CD11b immunochemical staining of retina, chronic intraocular pressure increase model; type: in vivo, rat
Method: (§1) 0.05 cc/50 g of Tiletimine and Zolazepam-mixed medicament (Zoletil) and Xylazine (Rompum) were mixed at a ratio of 1:1 and then administered to 20 rats by intramuscular injection, thereby anesthetizing the rats. A limbus periphery was divided into four portions, each of which was then subjected to 2 mm dissection at an interval of 90 degrees, and then, two radial conjunctival excisions were performed on upper dissection periphery. […] After surgical isolation of vein, the vein was lifted up by using 3 mm-width spatula to be spaced apart from the peripheral tissue, and then, was subjected to electric ablation while being careful for the peripheral tissue not to have any thermal damage or any mechanical damage due to contact. Intraocular pressure was consecutively measured three or more times by using Tonopen (Solan, Fla., USA), and only reliable intraocular pressure values within 5 percentile were recorded. […] Before the operation, and 3 days, and 1, 2, 4, and 8 weeks after the operation, intraocular pressure was measured, and the rats were sacrificed to extract eyes therefrom, which were then subjected to tissue examination and immunechemical staining with respect to Brn-3a and CD11b, and a reverse transcription polymerase chain reaction was used to measure CD11b value in retinal tissue. […]

[1] = tested on: Brn-3a marked retinal ganglion cell; assay: Brn-3a immunochemical staining of retina, chronic intraocular pressure increase model; type: in vivo, rat
Method: as §1

angiogenin = assay: Angiogenin immunohistochemical staining of glaucoma rat model anterior chamber angle after instillation; type: in vivo; conditions: episcleral venous ablation glaucoma model, 1 hour after instillation, compared to before angiogenin instillation
Method: Eyeballs donated for research purposes were pre-fixed in a 4% paraformaldehyde solution for 6 hours, and then, a tissue thereof was cut to be perpendicular to cornea, including cornea, limbus, and conjunctival, and the obtained tissue was fixed at room temperature for 6 hours. The fixed tissue was rapidly frozen and then a frozen tissue section was prepared and attached to slide glass. Thereafter, for immunohistochemical staining, the tissue section was washed with distilled water for 10 minutes and then, treated with 1% hydrogen peroxide solution for 20 minutes and then, washed three times with 0.02M phosphate buffer solution and treated with normal horse serum for 30 minutes. Then, primary antibody of angiogenin and Indoleamine 2,3-dioxygenase (IDO) were applied thereto for 48 hours, and then the result tissue were washed with PBS, and then, secondary antibody was applied thereto at room temperature for 1 hour. When immunohistochemical staining was completed, the tissue was sealed by poly-mount and identified by optical microscopy. […]

[2] = tested on: nitric oxide (NO) concentration in aqueous humor; assay: NO concentration in aqueous humor after instillation (Griess assay); type: in vivo, rat; conditions: 1 hour after the initial instillation, 50 μg/ml, day-time and night-time test, rank among instillation groups
Method: Normal rat models were divided into 4 groups, each group consisting of 6 rats, that is, 12 eyes, and at 8 AM and 8 PM, each group was instilled with angiogenin 50 μg/ml, angiogenin fragment 50 μg/ml, and latanoprost 50 μg/ml, and 1, 3, and 6 hours after instillation, 15 to 20 μl of aqueous humor was extracted from two rats, that is, 4 eyes for each group. For the extraction of aqueous humor, first, rats were anesthetized, and then, corneal dissection was performed in a direction from at 9 o'clock outside each eye toward microkeratome, and then, a capillary tube was brought into contact through a dissection wound to absorb aqueous humor, which was then moved to an eppendroff tube and frozen-preserved at a temperature of −70 degrees. Thereafter, nitric oxide (NO) concentration in aqueous humor was measured by Griess assay (nitric oxide colorimetric assay kit, Biovision, USA). The aqueous humor was diluted 10 times and then mixed with the same amount of griess solution and reacted together for 10 minutes. The reaction product was moved onto a well plate and then, absorbance of nitrate, which is a NO formation reactant, was measured by using spectrophotometer at a wavelength of 540 nm and compared with a reference value to quantify the nitrate.

retinal ganglion cell = assay: Retinal ganglion cell density on H-E staining, chronic intraocular pressure increase model; type: in vivo, rat; conditions: 8 weeks after the injury
Method: as §1

[3] = tested on: Schlemm's canal peripheral tissue in anterior chamber angle; assay: H&E staining of Schlemm's canal peripheral tissue in anterior chamber angle of glaucoma model after instillation; type: in vivo, rat; conditions: after instillation compared to before instillation

angiogenin: recombinant human angiogenin (R&D systems); 14.4 kDa single chain protein of 123 amino acids, a ribonuclease inducing angiogenesis
distribution of CD11b marked macrophage in retinal ganglion layer (CD11b marked macrophage): highly frequently distributed
density of Brn-3a marked retinal ganglion cell [1]: well maintained
angiogenin stain in anterior chamber angle / at trabecular meshwork (angiogenin): intensified
NO concentration increase in aqueous humor [2]: greatest NO concentration increase
density of retinal ganglion cell (retinal ganglion cell): does not change
diameter and intercellular interval of Schlemm's canal [3]: increased
